From patent US20190053492A1, “SUBSTITUTED PYRIDINE COMPOUNDS AS PESTICIDES” (Bayer CropScience Aktiengesellschaft, priority 2016, published 2019)
Where two headings read alike, the source gives them in different places.

How the values were obtained:
[1] = log P by HPLC on reversed-phase column (C 18), EEC Directive 79/831 Annex V.A8; type: physicochemical; details: 55° C.; for LOGP_HCOOH: log P (HCOOH); for chromatographic logP: reversed-phase HPLC column (C 18)
Experimental: Temperature: 55° C. […] Called log P (HCOOH) in the table. […] Called log P (neutral) in the table.

[2] = system: Spodoptera frugiperda; assay: Spodoptera frugiperda spray test; type: in vivo; details: after 7 days, maize leaf discs; for pest or weed control at 500 g/ha / pest or weed control at 100 g/ha: Spodoptera frugiperda, foliar, 168 h, read-out: efficacy (caterpillars killed)
Experimental: Spodoptera frugiperda—Spray Test
Solvent: 78.0 parts by weight of acetone • • 1.5 parts by weight of dimethylformamide
Emulsifier: alkylaryl polyglycol ether
To produce a suitable active ingredient formulation, 1 part by weight of active ingredient is dissolved with the specified parts by weight of solvent and made up with water containing an emulsifier concentration of 1000 ppm until the desired concentration is attained. To produce further test concentrations, the formulation is diluted with emulsifier-containing water.
Leaf discs of maize (Zea mays) are sprayed with an active ingredient formulation of the desired concentration and, after drying, populated with caterpillars of the armyworm (Spodoptera frugiperda).
After 7 days, the efficacy in % is determined. 100% means that all the caterpillars have been killed; 0% means that no caterpillar has been killed.

[3] = acidic range pH 2.7, 0.1% aqueous formic acid and acetonitrile, reversed-phase column (C 18)
[4] = log P, neutral range, HPLC on reversed-phase column (C 18)
[5] = acidic range at pH 2.7, 0.1% aqueous formic acid and acetonitrile, HPLC on reversed-phase column (C 18)
[6] = pH 2.7, LC-MS acidic range, pH 2.7, 0.1% formic acid/acetonitrile, read-out: log P (acidic) / log P (HCOOH)
[7] = pH 7.8, LC-MS neutral range, pH 7.8, ammonium hydrogencarbonate/acetonitrile, read-out: log P (neutral)

| SMILES | LOGP_NEUTRAL [1, 4] | LOGP_HCOOH [1, 5] | efficacy (caterpillars killed) ([2]; application rate 500 g/ha) [%] | efficacy (caterpillars killed) ([2]; application rate 100 g/ha) [%] | also measured |
| --- | --- | --- | --- | --- | --- |
| O=C(NCCCc1ccc(C(F)(F)F)cc1)c1cc(-c2ccc(C(F)(F)F)cc2)cc(NC(=O)C2CC2)n1 [Example I-058] | 4.79 |  | 100 |  | LOGP_HCOOH [1, 3]: 4.94 |
| O=C(NCc1ccc(Cl)c(F)c1)c1cc(-c2ccc(OC(F)(F)F)cc2)cc(NC(=O)C2CC2)n1 [Example I-062] | 4.53 |  | 100 | 83 | LOGP_HCOOH [1, 3]: 4.67 |
| Cn1ncc2cccc(CNC(=O)c3cc(-c4ccc(OC(F)(F)F)cc4)cc(NC(=O)C4CC4)n3)c21 [Example I-092] | 3.67 |  | 100 |  | LOGP_HCOOH [1, 3]: 3.81 |
| N#Cc1ccc(CNC(=O)c2cc(-c3ccc(OC(F)(F)F)c(F)c3)cc(NC(=O)C3CC3)n2)cc1 [Example I-121] | 3.83 | 3.94 | 100 | 83 |  |
| N#Cc1ccc(CNC(=O)c2cc(-c3ccc(OC(F)(F)F)cc3Cl)cc(NC(=O)C3CC3)n2)cc1 [Example I-122] | 3.99 | 4.18 | 100 | 100 |  |
| N#CC1(NC(=O)c2cc(-c3ccc(OC(F)(F)F)cc3)cc(NC(=O)C3CC3)n2)CCOCC1 [Example I-134] |  | 3.58 | 100 | 83 |  |
| COC(=O)C(C)NC(=O)c1cc(-c2ccc(OC(F)(F)F)cc2)cc(NC(=O)C2CC2)n1 (stereo not shown) [Example I-136] |  | 3.68 | 100 |  |  |
| N#Cc1ccc(CNC(=O)c2cc(-c3ccc(C(F)(F)F)nc3F)cc(NC(=O)C3CC3)n2)cc1 [Example I-143] |  | 3.24 |  | 100 |  |
| CC1(NC(=O)c2cc(-c3ccc(OC(F)(F)F)cc3)cc(NC(=O)C3CC3)n2)CSC1 [Example I-163] | 4.24 | 4.32 | 100 |  |  |
| N#Cc1ccc2c(c1)CCC2NC(=O)c1cc(-c2ccc(OC(F)(F)F)cc2)cc(NC(=O)C2CC2)n1 (stereo not shown) [Example I-164] | 4.24 | 4.42 | 100 | 100 |  |
| O=C(NC1CCCC1)c1cc(-c2ccc(OC(F)(F)F)cc2)cc(NC(=O)C2CC2)n1 [Example I-169] | 4.22 | 4.35 | 100 | 100 |  |
| O=C(NC1CCS(=O)(=O)C1)c1cc(-c2ccc(OC(F)(F)F)cc2)cc(NC(=O)C2CC2)n1 (stereo not shown) [Example I-187] | 3.00 | 3.09 | 83 |  |  |
| N#Cc1ccc(CNC(=O)c2cc(-c3ccc(C4(C(F)(F)F)CC4)cc3)cc(NC(=O)C3CC3)n2)cc1 [Example I-193] | 3.95 | 4.12 | 100 |  |  |
| N#CC1CCC(CNC(=O)c2cc(-c3ccc(OC(F)(F)F)cc3)cc(NC(=O)C3CC3)n2)CC1 (stereo not shown) [Example I-198] | 3.75 | 3.85 | 100 | 100 |  |
| N#Cc1ccc(CNC(=O)c2cc(-c3ccc(OC(F)(F)F)cc3)cc(NC(=O)Cc3ccc([N+](=O)[O-])cc3)n2)cc1 [Example I-211] | 4.01 | 4.16 | 100 | 83 |  |
| N#Cc1ccc(CNC(=O)c2cc(-c3ccc(OC(F)(F)F)cc3)cc(NC(=O)c3cnco3)n2)cc1 [Example I-212] | 3.34 | 3.44 | 100 |  |  |
| CC(=O)N(C)c1cc(-c2ccc(OC(F)(F)F)cc2)cc(C(=O)NCc2ccc(C#N)cc2)n1 [Example I-220] | 3.35 | 3.39 | 100 |  |  |
| CCN(C(=O)C(C)C)c1cc(-c2ccc(OC(F)(F)F)cc2)cc(C(=O)NCc2ccc(C#N)cc2)n1 [Example I-221] | 4.20 | 4.20 |  | 80 |  |
| COC(C)C(=O)Nc1cc(-c2ccc(OC(F)(F)F)cc2)cc(C(=O)NCc2ccc(C#N)cc2)n1 (stereo not shown) [Example I-223] | 3.91 | 4.01 | 100 |  |  |
| O=C(NC1(c2ccc([N+](=O)[O-])cc2)CC1)c1cc(-c2ccc(OC(F)(F)F)cc2)cc(NC(=O)C2CC2)n1 [Example I-229] |  | 4.23 | 100 |  |  |
| COC(=O)N(Cc1ccc(C#N)cc1)C(=O)c1cc(-c2ccc(OC(F)(F)F)cc2)cc(NC(=O)C2CC2)n1 [Example I-231, Methyl (4-cyanobenzyl)({6-[(cyclopropylcarbonyl)amino]-4-[4-(trifluoromethoxy)phenyl]pyridin-2-yl}carbonyl)carbamate] | 4.43 | 4.41 |  |  | chromatographic logP [1, 6]: 4.41; chromatographic logP [1, 7]: 4.43; pest or weed control at 100 g/ha ([2]; application rate 100 g/ha): 100%; pest or weed control at 500 g/ha ([2]; application rate 500 g/ha): 100% |
| N#Cc1ccc(CNC(=O)c2cc(-c3ccc(OC(F)(F)F)cc3)cc(NC(=O)C3(C(F)(F)F)CC3)n2)cc1 [Example I-242] |  |  | 100 |  | LOGP_HCOOH [1, 3]: 4.57; LOGP_NEUTRAL ([1]; log P (neutral), HPLC reversed-phase column (C 18)): 4.63 |

Second part, led by results:

| LOGP_NEUTRAL [1, 4] | LOGP_HCOOH [1, 5] | SMILES | efficacy (caterpillars killed) ([2]; application rate 500 g/ha) [%] | efficacy (caterpillars killed) ([2]; application rate 100 g/ha) [%] | also measured |
| --- | --- | --- | --- | --- | --- |
| 4.10 |  | O=C(NCC1CCC1)c1cc(-c2ccc(C(F)(F)F)cc2)cc(NC(=O)C2CC2)n1 [Example I-049] | 83 |  | LOGP_HCOOH [1, 3]: 4.21 |
| 4.59 |  | O=C(NCc1ccc(C(F)(F)F)cc1F)c1cc(-c2ccc(C(F)(F)F)cc2)cc(NC(=O)C2CC2)n1 [Example I-054] | 100 |  | LOGP_HCOOH [1, 3]: 4.68 |
| 4.93 |  | O=C(NCc1cc(F)c(Cl)cc1Cl)c1cc(-c2ccc(C(F)(F)F)cc2)cc(NC(=O)C2CC2)n1 [Example I-059] | 100 |  | LOGP_HCOOH [1, 3]: 5.09 |
| 5.07 |  | O=C(NCc1cc(F)c(Cl)cc1Cl)c1cc(-c2ccc(OC(F)(F)F)cc2)cc(NC(=O)C2CC2)n1 [Example I-063] | 100 |  | LOGP_HCOOH [1, 3]: 5.20 |
| 4.05 |  | COc1ccc(CNC(=O)c2cc(-c3ccc(OC(F)(F)F)cc3)cc(NC(=O)C3CC3)n2)cc1 [Example I-083] | 100 | 83 | LOGP_HCOOH [1, 3]: 4.22 |
|  | 4.28 | CCC(C#N)(CC)NC(=O)c1cc(-c2ccc(OC(F)(F)F)cc2)cc(NC(=O)C2CC2)n1 [Example I-139] | 100 |  |  |
| 4.72 | 4.85 | CCc1cc(C(F)(F)C(F)(F)F)cc(C)c1-c1cc(NC(=O)C2CC2)nc(C(=O)NCc2ccc(C#N)cc2)c1 [Example I-148, N-(4-Cyanobenzyl)-6-[(cyclopropylcarbonyl)amino]-4-[2-ethyl-6-methyl-4-(pentafluoroethyl)phenyl]pyridine-2-carboxamide] |  |  | chromatographic logP [1, 6]: 4.85; chromatographic logP [1, 7]: 4.72; pest or weed control at 500 g/ha ([2]; application rate 500 g/ha): 100% |
| 4.85 | 4.97 | O=C(NCC1CCC(C(F)(F)F)CC1)c1cc(-c2ccc(OC(F)(F)F)cc2)cc(NC(=O)C2CC2)n1 (stereo not shown) [Example I-156] | 100 | 100 |  |
|  | 3.68 | N#Cc1ccc2[nH]nc(NC(=O)c3cc(-c4ccc(OC(F)(F)F)cc4)cc(NC(=O)C4CC4)n3)c2c1 [Example I-166] | 83 |  |  |
| 4.55 | 4.68 | O=C(NCC1CCCC1)c1cc(-c2ccc(OC(F)(F)F)cc2)cc(NC(=O)C2CC2)n1 [Example I-170] | 100 | 83 |  |
| 5.43 | 5.54 | N#Cc1ccc(CNC(=S)c2cc(-c3ccc(OC(F)(F)F)cc3)cc(NC(=S)C3CC3)n2)cc1 [Example I-181, N-(4-Cyanobenzyl)-6-[(cyclopropylcarbonothioyl)amino]-4-[4-(trifluoromethoxy)phenyl]pyridine-2-carbothioamide] |  |  | chromatographic logP [1, 6]: 5.54; chromatographic logP [1, 7]: 5.43; pest or weed control at 100 g/ha ([2]; application rate 100 g/ha): 100%; pest or weed control at 500 g/ha ([2]; application rate 500 g/ha): 100% |
| 3.51 | 3.59 | N#CCCCCCNC(=O)c1cc(-c2ccc(OC(F)(F)F)cc2)cc(NC(=O)C2CC2)n1 [Example I-200] | 100 | 100 |  |
| 4.51 |  | N#Cc1ccc(CNC(=O)c2cc(-c3ccc(OC(F)(F)F)cc3)cc(NC(=O)C3CCCC3)n2)cc1 [Example I-207] | 100 |  |  |
